{"source": "paper PMC3621575", "about": "(ACS Chemical Biology, 2012)", "key": {"[1]": {"system": "CDK9", "details": "primary chronic lymphocytic leukemia cells; cited from earlier work"}, "[2]": {"system": "human kinome in primary chronic lymphocytic leukemia cells", "details": "cited from earlier work"}, "[3]": {"system": "PCSTAIRE2", "details": "primary chronic lymphocytic leukemia cells; cited from earlier work"}, "[4]": {"system": "CRK7", "details": "primary chronic lymphocytic leukemia cells; cited from earlier work"}, "[5]": {"target": "T1, T. brucei CRK1 (Trypanosoma brucei brucei, UniProt P38973)", "T1 sequence (P38973 1-301)": "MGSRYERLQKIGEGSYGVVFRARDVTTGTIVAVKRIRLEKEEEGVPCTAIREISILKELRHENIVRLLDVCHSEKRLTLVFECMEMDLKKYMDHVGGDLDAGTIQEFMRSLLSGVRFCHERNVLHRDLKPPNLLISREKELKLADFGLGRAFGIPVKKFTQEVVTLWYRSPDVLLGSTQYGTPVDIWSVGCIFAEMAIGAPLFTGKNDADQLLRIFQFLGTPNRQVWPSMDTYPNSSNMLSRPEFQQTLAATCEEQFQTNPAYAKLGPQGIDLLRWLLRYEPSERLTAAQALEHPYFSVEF", "assay": "Kinobead profiling, T. brucei lysate, CRK1", "assay_type": "binding", "details": "T. brucei cell lysate"}}, "data": [{"smiles": "CC(C)(C)c1cnc(CSc2cnc(NC(=O)C3CCNCC3)s2)o1", "note": "[BMS-387032]", "values": [{"measurement": "kinobead IC50, CDK9", "setting": "[1]", "result": "submicromolar"}, {"measurement": "observed CDKs inhibited", "setting": "[2]", "result": "all of the seven"}, {"measurement": "kinobead IC50, PCSTAIRE2", "setting": "[3]", "result": "submicromolar"}, {"measurement": "kinobead IC50, CRK7", "setting": "[4]", "result": "submicromolar"}, {"measurement": "kinobead inhibition of CRK1", "setting": "[5]", "result": "no inhibition"}]}]}
